Test system: PDC KRAS tumor spheroids with HUVEC/MSC, viability
Experiment: Anticancer human tumor 349418-098-R-PDC patient-derived lung adenocarcinoma cell line growth inhibition [KRAS2]
Details: for viability, T/C: stronger effect = lower value
Method in brief: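 KRAS-mutant tumor cells were grown as spheroids with HUVEC endothelial cells and human MSCs as stroma. Targeted agents were tested alone and with KRAS pathway inhibitors. Doses started at or near clinical Cmax, or 10 microM, descending half-log.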

[1] = curve of first compound, second compound 0.1 µM
[2] = curve of first compound, second compound 0.316 µM
[3] = curve of first compound, second compound 1 µM
[4] = curve of first compound, second compound 3.16 µM
[5] = second compound 0.1 µM, first compound 0.0316 µM
[6] = second compound 0.1 µM, first compound 0.1 µM
[7] = second compound 0.316 µM, first compound 0.0316 µM
[8] = second compound 0.316 µM, first compound 0.1 µM
[9] = second compound 1 µM, first compound 0.0316 µM
[10] = second compound 1 µM, first compound 0.1 µM
[11] = second compound 3.16 µM, first compound 0.0316 µM
[12] = second compound 3.16 µM, first compound 0.1 µM
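Also: spheroids exposed to compounds for seven days before readout.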

For O=C(c1cc(Cc2n[nH]c(=O)c3ccccc23)ccc1F)N1CCN(C(=O)C2CC2)CC1 + C=CC(=O)N1CCN(c2nc(OCC3CCCN3C)nc3c2CCN(c2cccc4cccc(C)c24)C3)CC1CC#N, the IC50 (curve of first compound, second compound 0.0316 µM) was 189 nM, the IC50 [1] was 168 nM and the IC50 [2] was 1190 nM. For the same compound, the IC50 [3] was 353 nM, the IC50 [4] was under 31.6 nM and the viability, T/C (second compound 0.0316 µM, first compound 0.0316 µM) was 86.9%. It also gave a viability, T/C (second compound 0.0316 µM, first compound 0.1 µM) of 75.7%, a viability, T/C (second compound 0.0316 µM, first compound 0.316 µM) of 29.1% and a viability, T/C (second compound 0.0316 µM, first compound 1 µM) of 21.3%. It also gave a viability, T/C (second compound 0.0316 µM, first compound 3.16 µM) of 17.5%, a viability, T/C (second compound 0.0316 µM, first compound 10 µM) of 15.6% and a viability, T/C [5] of 81.2%. It also gave a viability, T/C [6] of 50.7%, a viability, T/C (second compound 0.1 µM, first compound 0.316 µM) of 50.7% and a viability, T/C (second compound 0.1 µM, first compound 1 µM) of 24.5%. The viability, T/C (second compound 0.1 µM, first compound 3.16 µM) was 20.9%, the viability, T/C (second compound 0.1 µM, first compound 10 µM) was 17.5% and the viability, T/C [7] was 91.6%. For the same compound, the viability, T/C [8] was 88%, the viability, T/C (second compound 0.316 µM, first compound 0.316 µM) was 68.2% and the viability, T/C (second compound 0.316 µM, first compound 1 µM) was 62.1%. It also gave a viability, T/C (second compound 0.316 µM, first compound 3.16 µM) of 23.1%, a viability, T/C (second compound 0.316 µM, first compound 10 µM) of 18.9% and a viability, T/C [9] of 51.9%. The viability, T/C [10] was 55.5%, the viability, T/C (second compound 1 µM, first compound 0.316 µM) was 52.5% and the viability, T/C (second compound 1 µM, first compound 1 µM) was 34.6%. For the same compound, the viability, T/C (second compound 1 µM, first compound 3.16 µM) was 26.7%, the viability, T/C (second compound 1 µM, first compound 10 µM) was 20.6% and the viability, T/C [11] was 0.11%. It also gave a viability, T/C [12] of 0.12%, a viability, T/C (second compound 3.16 µM, first compound 0.316 µM) of 0.11% and a viability, T/C (second compound 3.16 µM, first compound 1 µM) of 0.11%. The viability, T/C (second compound 3.16 µM, first compound 3.16 µM) was 0.12% and the viability, T/C (second compound 3.16 µM, first compound 10 µM) was 1.16%.
CN(C)C/C=C/C(=O)Nc1cc2c(Nc3ccc(F)c(Cl)c3)ncnc2cc1O[C@H]1CCOC1 + COc1cc2nc(C)nc(NC(C)c3cc(N)cc(C(F)(F)F)c3)c2cc1OC1CCOC1 showed an IC50 [1] of over 100 nM, an IC50 [2] of over 100 nM and an IC50 [3] of over 100 nM. It also gave an IC50 [4] of over 100 nM, an IC50 (curve of first compound, second compound 10 µM) of over 100 nM and a viability, T/C (second compound 0.1 µM, first compound 0.000316 µM) of 97.6%. For the same compound, the viability, T/C (second compound 0.1 µM, first compound 0.001 µM) was 104%, the viability, T/C (second compound 0.1 µM, first compound 0.00316 µM) was 88.8% and the viability, T/C (second compound 0.1 µM, first compound 0.01 µM) was 95.3%. It also gave a viability, T/C [5] of 93.8%, a viability, T/C [6] of 92.8% and a viability, T/C (second compound 0.316 µM, first compound 0.000316 µM) of 87.2%. For the same compound, the viability, T/C (second compound 0.316 µM, first compound 0.001 µM) was 102%, the viability, T/C (second compound 0.316 µM, first compound 0.00316 µM) was 92.2% and the viability, T/C (second compound 0.316 µM, first compound 0.01 µM) was 102%. It also gave a viability, T/C [7] of 87.5%, a viability, T/C [8] of 88.2% and a viability, T/C (second compound 1 µM, first compound 0.000316 µM) of 91.5%. For the same compound, the viability, T/C (second compound 1 µM, first compound 0.001 µM) was 97.4%, the viability, T/C (second compound 1 µM, first compound 0.00316 µM) was 101% and the viability, T/C (second compound 1 µM, first compound 0.01 µM) was 92.8%. It also gave a viability, T/C [9] of 90.8%, a viability, T/C [10] of 91.9% and a viability, T/C (second compound 3.16 µM, first compound 0.000316 µM) of 74.7%. For the same compound, the viability, T/C (second compound 3.16 µM, first compound 0.001 µM) was 78.2%, the viability, T/C (second compound 3.16 µM, first compound 0.00316 µM) was 70.3% and the viability, T/C (second compound 3.16 µM, first compound 0.01 µM) was 77.7%. The viability, T/C [11] was 67.6%, the viability, T/C [12] was 75.1% and the viability, T/C (second compound 10 µM, first compound 0.000316 µM) was 74%. The viability, T/C (second compound 10 µM, first compound 0.001 µM) was 69.7%, the viability, T/C (second compound 10 µM, first compound 0.00316 µM) was 73.2% and the viability, T/C (second compound 10 µM, first compound 0.01 µM) was 78.8%. For the same compound, the viability, T/C (second compound 10 µM, first compound 0.0316 µM) was 73.4% and the viability, T/C (second compound 10 µM, first compound 0.1 µM) was 62.8%.
For Cn1ncnc1[C@H]1c2n[nH]c(=O)c3cc(F)cc(c23)N[C@@H]1c1ccc(F)cc1, the viability, T/C (compound 0.000316 µM) was 104% [middle of 5 runs], the viability, T/C (compound 0.001 µM) was 96.9% [middle of 5 runs] and the viability, T/C (compound 0.00316 µM) was 96.4% [middle of 5 runs]. The viability, T/C (compound 0.01 µM) was 94.2% [middle of 5 runs], the viability, T/C (compound 0.0316 µM) was 86.2% [middle of 5 runs] and the viability, T/C (compound 0.1 µM) was 78.7% [middle of 5 runs]. The IC50 (curve of compound) was over 100 nM.
